Here are results for two compounds from patent US7838464B2, “Method for yield improvement in glyphosate-resistent legumes” (priority 2002, dated 2010).

In this assay the test system is soya variety NIDERA AX 4910. Briefly: Field experiments: yield of glyphosate-resistant soya after foliar treatment. The assay is classed as in vivo. As to the method:
The results shown hereinbelow were obtained in experiments in the, open which were carried out during the […] season in the Argentinian northern pampas. The plots used were arranged randomly relative to one another. Each treatment variant was replicated-four times. The crop plant used was the soya variety NIDERA AX 4910, which is resistant to numerous fungal diseases and to the herbicide glyphosate.
In all 5 experiments, two foliar treatments with glyphosate were carried out 30 or 60 days after planting the soya seeds, using equipment conventionally used under practice conditions. In the experiments 2 and 3, pyraclostrobin was added at “30 days after planting”, while pyraclostrobin was added at “60 days after planting” in the experiments 4 and 5.

In the case of pyraclostrobin, the “yield in comparison with the conventional use of glyphosate alone” value (addition of pyraclostrobin 50 or 100 g a.s./ha to glyphosate at early (30 days) and late (60 days) treatment times) is “markedly increased the yield”.

Take `O=C(O)CNCP(=O)(O)O` [glyphosate, N-(phosphonomethyl)glycine]: for the setting “experiment 1: glyphosate 360 g a.s./ha at 30 and at 60 days after planting, no pyraclostrobin, open field, 4 replicates”, the Yield was 100%.
